Assay results as given in patent US20260294893A1, “NOVEL RAS INHIBITORS” (KHR Biotec GmbH, priority 2022, published 2026).
pIC50: −log10 of the molar value.

How the values were obtained:
[1] = system: Na+/K+-ATPase transmembrane protein; conditions: through action on the Na+/K+-ATPase; cited from earlier work
KRAS G12V = target: T1, KRAS G12V (Homo sapiens, UniProt P01116, G12V); test: NanoBit assay for RAS activation (LgBiT-KRAS G12V / SmBiT-CRAF RBD); assay type: cell-based; conditions: 2 h with inhibitor, serum free DMEM
T1 construct: CRAF RBD (1-149) fused to SmBiT; transfected cells
T1 sequence (P01116 1-188 isoform P01116-2 G12V): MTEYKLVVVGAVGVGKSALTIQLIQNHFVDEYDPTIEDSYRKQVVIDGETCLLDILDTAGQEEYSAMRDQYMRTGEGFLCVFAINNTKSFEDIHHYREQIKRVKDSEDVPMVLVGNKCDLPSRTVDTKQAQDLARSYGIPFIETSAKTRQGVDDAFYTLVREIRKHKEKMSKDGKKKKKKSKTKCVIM
Protocol: (§1) FIGS. 1a), 1b) and 1c): NanoBit assay for RAS activation (KRAS G12V, NRAS G12V, HRAS G12V)
(§2) N-terminal LgBiT and C-terminal SmBiT construct was purchased from Promega and K, N and HRAS G12V (full length) was cloned with Xho I and Bgl II to LgBit and CRAF Ras binding domain (1-149) was cloned with EcoRI and Bgl II to SmBit. For transfections, 1 μg or 2 μg of (12 well/6 well) plasmids were transfected into cells with 0.5 mM of PEI reagent in 100 μl or 200 μl PBS. One day after transfection, cells were harvested and seeded into 96 well white plates, half area (Greiner). After an additional day the medium was changed to serum free DMEM and the cells were incubated for 2 h with inhibitor. NanoGlo assay was performed according to the manufacturer's instructions. The luminescence was measured using Tecan infinite (Tecan).
(§3) HeLa S3 (DSMZ) were authenticated by Eurofin genomics and cultured in DMEM (10% heat inactivated FBS). NCI-H358 cells were cultured in RPMI-1640 (10% heat inactivated FBS).

NRAS G12V = target: T2, NRAS G12V (Homo sapiens, UniProt P01111, G12V); test: NanoBit assay for RAS activation (LgBiT-NRAS G12V / SmBiT-CRAF RBD); assay type: cell-based; conditions: 2 h with inhibitor, serum free DMEM
T2 construct: CRAF RBD (1-149) fused to SmBiT; transfected cells (HeLa S3 likely), NanoBiT
T2 sequence (P01111 1-186 G12V): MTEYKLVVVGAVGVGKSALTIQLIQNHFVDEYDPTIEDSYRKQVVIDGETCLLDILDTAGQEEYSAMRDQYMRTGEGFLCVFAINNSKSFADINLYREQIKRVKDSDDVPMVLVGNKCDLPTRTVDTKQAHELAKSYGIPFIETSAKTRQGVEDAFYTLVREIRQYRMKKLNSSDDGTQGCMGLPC
Protocol: as §1, §2, §3

HRAS G12V = target: T3, HRAS G12V (Homo sapiens, UniProt P01112, G12V); test: NanoBit assay for RAS activation (LgBiT-HRAS G12V / SmBiT-CRAF RBD); assay type: cell-based; conditions: 2 h with inhibitor, serum free DMEM
T3 construct: CRAF RBD (1-149) fused to SmBiT; transfected cells (HeLa S3 likely), NanoBiT
T3 sequence (P01112 1-186 G12V): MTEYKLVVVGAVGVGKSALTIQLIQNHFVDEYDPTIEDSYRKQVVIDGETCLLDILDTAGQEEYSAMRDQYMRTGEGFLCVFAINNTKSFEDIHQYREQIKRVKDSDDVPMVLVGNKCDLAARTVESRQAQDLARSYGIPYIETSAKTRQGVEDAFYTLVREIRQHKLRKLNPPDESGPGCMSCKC
Protocol: as §1, §2, §3

NCI-H358 = test: Soft agar colony formation assay, MTT; assay type: cell-based; conditions: Homo sapiens, 3 independent experiments
Protocol: (§4) FIGS. 2a), 2b) and 2c): MTT assay for cell growth
(§5) Metabolic activity was quantified using Cell Proliferation Kit I (Roche, Basel, Switzerland). Cells were seeded in 96-well cell culture plates, using 5000 cells per well for NCI-H358 cells. After treatment, 10 μl of MTT solution was added and incubated for 2 h in CO2 incubator. Then 100 μl of solubilization buffer was added to each well and incubated overnight in CO2 incubator. Cell viability, assessed by the amount of metabolized MTT, was quantified by measuring absorbance at 570 nm.
(§6) MTT assay for the growth of different tumour cell lines with RAS mutations in soft agar with Sanguinarine chloride. Shown are data from three independent experiments. NCI-H358, H358, H2122, ASPC-1, HCT-116, T24 and HT1080 cells were used for the soft agar colony formation assay. After the treatment with Sanguinarine chloride, the colonies were stained with MTT and the value was quantified by measuring absorbance at 570 nm after solubilization. The results represent mean±SEM from 3 independent experiments.
as §3

ASPC1 = test: Soft agar colony formation assay, MTT; assay type: cell-based; conditions: Homo sapiens, 3 independent experiments
Protocol: as §4, §5, §6

HCT-116 = test: Soft agar colony formation assay, MTT; assay type: cell-based; conditions: Homo sapiens; HCT-116, soft agar, 3 independent experiments
Protocol: as §4, §5, §6

HT1080 = test: Soft agar colony formation assay, MTT; assay type: cell-based; conditions: Homo sapiens, HT-1080, 3 independent experiments
Protocol: as §4, §5, §6

NCI-H2122 = test: Soft agar colony formation assay, MTT; assay type: cell-based; conditions: Homo sapiens, 3 independent experiments
Protocol: as §4, §5, §6

T24 = test: Soft agar colony formation assay, MTT; assay type: cell-based; conditions: Homo sapiens, T-24, 3 independent experiments
Protocol: as §4, §5, §6

[2] = system: different RAS-isoform addicted cell-lines; test: Soft agar colony formation assay, MTT; assay type: cell-based
Protocol: as §4, §5, §6

[3] = system: KRAS mutants (G12V, G12C, G12D, G12C/Y96D, G13C, G13D, G13S, Q61K and Q61R); test: NanoBiT assay for the RAS GTP-loading in HeLa cells transfected with LgBit-KRAS mutants and SmBit-CRAF-RBD; assay type: cell-based; conditions: 2 h, serum-free DMEM
Protocol: NanoBiT assay for the RAS GTP-loading was performed in HeLa cells transfected with LgBit-KRAS mutants and SmBit-CRAF-RBD. Cells were treated with Sanguinarine chloride for 2 h in serum-free DMEM. After incubation, the substrate for NanoLuc was added, and the luminescence was measured in a multiplate reader. Data were normalized to cells transfected with the indicated mutant and exposed to DMSO for 2 h. DMSO-treated cells were set as 1. The bars represent mean±SEM from 3 independent experiments.
as §3

BaF3 KRAS G12C/Y96D = test: MTT assay for cell viability; assay type: cell-based; conditions: Mus musculus, 48 h, 3 independent experiments
Protocol: (§7) FIGS. 4a) and 4b): MTT assay for cell viability in 96 well cell culture plate Cells were treated with Sanguinarine chloride for 48 h and cell viability was evaluated by MTT assay. DMSO-treated cells were set as 1. The results shown are mean±SEM from 3 independent experiments.

BaF3 KRAS G12C = test: MTT assay for cell viability; assay type: cell-based; conditions: Mus musculus, 48 h, 3 independent experiments
Protocol: as §7

KRAS dependent cells = test: MTT assay for cell viability; assay type: cell-based; conditions: 48 h, irrespective of the presence of mutation
Protocol: as §7

sNF96.2 = test: RASOpathie-Model; MTT assay for cell viability; assay type: cell-based; conditions: sNF96.2, 48 h
Protocol: FIG. 5: RASOpathie-Model Sanguinarine chloride; MTT assay for cell viability in 96 well cell culture plate
Cells were treated with Sanguinarine chloride for 48 h and cell viability was evaluated by MTT assay. DMSO-treated cells were set as 1. The results shown are mean±SEM from 3 independent experiments.

inhibition of K-RAS activation (KRAS G12V)	inhibition of N-RAS activation (NRAS G12V)	inhibition of H-RAS activation (HRAS G12V)	pIC50 (NCI-H358)	pIC50 (ASPC1)	pIC50 (HCT-116)	pIC50 (HT1080)	pIC50 (NCI-H2122)	pIC50 (T24)	pIC50 (BaF3 KRAS G12C/Y96D)	pIC50 (BaF3 KRAS G12C)	SMILES	toxicity to animal cells [1]	growth of RAS-isoform addicted cell-lines [2]	inhibition of different RAS-isoforms (RAS GTP-loading) [3]	inhibition of KRAS dependent cells (KRAS dependent cells)	pIC50 (sNF96.2; 3 independent experiments)	inhibition of RAS protein of RASOpathie (sNF96.2; MTT)
–	–	–	–	–	–	–	–	–	–	–	C[n+]1cc2c3c(ccc2c2ccc4cc5c(cc4c21)OCO5)OCO3 [Sanguinarine, 13-Methyl[1,3]benzodioxolo[5,6-c]-1,3-dioxolo[4,5-J]phenanthridinium]	kills animal cells through its action on the Na+/K+-ATPase transmembrane protein	–	–	–	–	–
inhibits	inhibits	inhibits	5.84	6.01	6.28	6.06	5.81	5.99	5.76	5.92	C[n+]1cc2c3c(ccc2c2ccc4cc5c(cc4c21)OCO5)OCO3.[Cl-] [Sanguinarine chloride, 13-Methyl-[1,3]benzodioxolo[5,6-c]-1,3-dioxolo[4,5-i]phenanthridinium chloide]	–	blocks the growth of different RAS-isoform addicted cell-lines and stops the growth of cancer	inhibits different RAS-isoforms	inhibits KRAS dependent cells irrespective of the presence of mutation	5.86	inhibits RAS protein of RASOpathie
